Patent EP3046573B1, “AMYLIN ANALOGUES” (Zealand Pharma A/S, priority 2013, dated 2015)
Where two headings read alike, the source gives them in different places. Numbered stars: 1 amine (or outer) side, 2 acyl side, 3 side chain; on linkers, the order of the positions; unused ones are H or OH. Bridge positions count the residues as written; N and C are the ends. Square brackets hold non-standard residues; d marks the D form. Peptide text beside a SMILES is read from it. * marks the point of attachment. C20 diacid = O=C(O)CCCCCCCCCCCCCCCCCCC(=O)*; γGlu = O=C(O)[C@H](CCC(=O)[*:2])N[*:1]; NMeI = CC[C@H](C)[C@H](NC)C(=O)O; Sar = CNCC(=O)O

Legend:
[1] = biological target: T1, human calcitonin receptor (hCTR2) (Homo sapiens, UniProt P30988); assay: hCTR2 assay: induction of cAMP (AlphaScreen cAMP Assay kit) in COS7 cells expressing hCTR2; type: cell-based
T1 construct: expressed in transfected cells
T1 sequence (P30988 25-474): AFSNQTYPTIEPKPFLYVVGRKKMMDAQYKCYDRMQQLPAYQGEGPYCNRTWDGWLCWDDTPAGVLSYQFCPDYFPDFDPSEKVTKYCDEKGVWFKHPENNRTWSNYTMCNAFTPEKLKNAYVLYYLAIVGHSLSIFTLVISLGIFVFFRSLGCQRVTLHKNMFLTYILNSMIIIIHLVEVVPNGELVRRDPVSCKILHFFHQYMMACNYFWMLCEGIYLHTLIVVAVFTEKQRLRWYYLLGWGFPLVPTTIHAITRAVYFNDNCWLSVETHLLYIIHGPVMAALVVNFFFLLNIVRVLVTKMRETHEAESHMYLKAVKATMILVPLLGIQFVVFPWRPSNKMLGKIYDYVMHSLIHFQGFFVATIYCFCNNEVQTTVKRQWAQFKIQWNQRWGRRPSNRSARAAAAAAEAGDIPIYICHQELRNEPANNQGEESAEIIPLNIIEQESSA
In short: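 cAMP induction was measured by AlphaScreen in COS7 cells stably expressing hCTR2 without RAMPs, after 15 min at 37° C with increasing peptide concentrations, 100 µM IBMX and 0.1% casein (Tyrode, pH 7.4). A 4-parameter logistic fit gave EC50 and % efficacy versus pramlintide.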

[2] = biological target: T2, human amylin receptor 3 (hAMYR3) consisting of hCTR2 co-expressed with human Receptor Activity Modifying Protein 3 (hRAMP3) (Homo sapiens, UniProt O60896+P30988); assay: hAMYR3 assay: induction of cAMP (AlphaScreen cAMP Assay kit) in COS7 cells expressing hAMYR3; type: cell-based
T2 construct: expressed in transfected cells
T2 sequence (P30988 25-474): T1 sequence (P30988 25-474)
T2 sequence (O60896 24-148 partner): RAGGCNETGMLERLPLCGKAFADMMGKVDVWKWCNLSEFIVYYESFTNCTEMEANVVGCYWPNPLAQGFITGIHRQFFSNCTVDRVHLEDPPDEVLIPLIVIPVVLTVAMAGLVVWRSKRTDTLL
In short: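 cAMP accumulation read by AlphaScreen in lysates of RAMP-naive COS7 cells stably transfected with hCTR2 plus hRAMP3. Cells exposed to peptide dilutions for 15 min, 37° C, with 100 µM IBMX; 4PL fitting gave EC50 and efficacy relative to pramlintide.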

[3] = Solubility assessment (turbidity absorbance at 325 nm); type: physicochemical; conditions: stock 2 mg/ml diluted 1:1, ambient temperature (typically 25°C), n=1; for Solubility, Acetate buffer pH 4: 100 mM acetate buffer pH 4.0; for Solubility, Acetate buffer pH 5: 100 mM acetate buffer pH 5.0; for Solubility, Histidine buffer pH 6: 100 mM histidine buffer pH 6.0; for Solubility, Histidine buffer pH 7: 100 mM histidine buffer pH 7.0; for Solubility, Phosphate buffer pH 6: 100 mM phosphate buffer pH 6.0; for Solubility, Phosphate buffer pH 7: 100 mM phosphate buffer pH 7.0; for Solubility, Phosphate buffer pH 7.5: 100 mM phosphate buffer pH7.5
In short: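 Read-out: turbidity as absorbance at 325 nm (280 nm also read), single samples, ambient temperature of typically 25°C. Samples were a 1:1 mix of 2 mg/ml stock (water, pH 2.5) with 100 mM acetate, histidine or phosphate buffers spanning pH 4.0–7.5. Cut-off: A325 ≤ 0.02 indicates ≥ 1 mg/ml.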

[4] = cAMP induction in COS7 cells expressing hCTR2, average of a minimum of 3 determinations, read-out: hCTR2 EC50
[5] = cAMP induction in COS7 cells expressing hAMYR3, average of a minimum of 3 determinations, read-out: hAMY R3 EC50

Structure (SMILES) | EC50 [1, 4] | EC50 [2, 5] | Solubility, Acetate buffer pH 4 [3] | Solubility, Acetate buffer pH 5 [3] | Solubility, Histidine buffer pH 6 [3] | Solubility, Histidine buffer pH 7 [3] | Solubility, Phosphate buffer pH 6 [3] | Solubility, Phosphate buffer pH 7 [3] | Solubility, Phosphate buffer pH 7.5 [3] | EC50 [1] | EC50 [2]
CC[C@H](C)[C@@H](C(=O)N[C@@H](CC(C)C)C(=O)N[C@@H](CO)C(=O)N[C@@H](CO)C(=O)N[C@H](C(=O)N[C@@H](CCC(=O)O)C(=O)N[C@H](C(=O)NCC(=O)N[C@@H](CO)C(=O)N[C@@H](CCC(=O)O)C(=O)N[C@H](C(=O)N1CCC[C@H]1C(N)=O)[C@@H](C)O)C(C)C)[C@@H](C)O)N(C)C(=O)[C@H](C)NC(=O)CN(C)C(=O)[C@H](Cc1ccccc1)NC(=O)[C@H](CO)NC(=O)[C@H](CO)NC(=O)[C@H](CO)NC(=O)[C@H](CO)NC(=O)[C@H](CCCNC(=N)N)NC(=O)[C@H](Cc1c[nH]cn1)NC(=O)[C@H](CC(C)C)NC(=O)[C@H](Cc1ccccc1)NC(=O)[C@H](CCC(=O)O)NC(=O)[C@H](C)NC(=O)[C@H](CC(C)C)NC(=O)[C@H](CCCNC(=N)N)NC(=O)[C@H](CC(=O)O)NC(=O)[C@@H](NC(=O)[C@H](C)NC(=O)[C@@H]1CSSC[C@H](NC(=O)[C@H](CCCNC(=N)N)NC(=O)CC[C@H](NC(=O)CCCCCCCCCCCCCCCCCCC(=O)O)C(=O)O)C(=O)N2CCC[C@H]2C(=O)N[C@@H]([C@@H](C)O)C(=O)N[C@@H](C)C(=O)N[C@@H]([C@@H](C)O)C(=O)N1)[C@@H](C)O [Compound 151, [19CD]-isoGlu-RC()PTATC()ATDRLAEFLHRSSSSF-Gly(Me)-A-Ile(Me)-LSSTEVGSETP-NH2] ({C20 diacid-γGlu}-RCPTATCATDRLAEFLHRSSSSF[Sar]A[NMeI]LSSTEVGSETP-NH2; disulfide 2-7) | 0.066 nM | 0.11 nM | SS (SS indicates solubility ≥ 1mg/ml) | SS (SS indicates solubility ≥ 1mg/ml) | SS (SS indicates solubility ≥ 1mg/ml) | SS (SS indicates solubility ≥ 1mg/ml) | SS (SS indicates solubility ≥ 1mg/ml) | SS (SS indicates solubility ≥ 1mg/ml) | SS (SS indicates solubility ≥ 1mg/ml) | – | –
CC[C@H](C)[C@@H](C(=O)N[C@@H](CC(C)C)C(=O)N[C@@H](CO)C(=O)N[C@@H](CO)C(=O)N[C@H](C(=O)N[C@@H](CC(N)=O)C(=O)N[C@H](C(=O)NCC(=O)N[C@@H](CO)C(=O)N[C@@H](CC(N)=O)C(=O)N[C@H](C(=O)N1CCC[C@H]1C(=O)NC)[C@@H](C)O)C(C)C)[C@@H](C)O)N(C)C(=O)[C@H](C)NC(=O)CN(C)C(=O)[C@H](Cc1ccccc1)NC(=O)[C@H](CC(N)=O)NC(=O)[C@H](CC(N)=O)NC(=O)[C@H](CO)NC(=O)[C@H](CO)NC(=O)[C@H](CCCNC(=N)N)NC(=O)[C@H](Cc1c[nH]cn1)NC(=O)[C@H](CC(C)C)NC(=O)[C@H](Cc1ccccc1)NC(=O)[C@H](CCC(=O)O)NC(=O)[C@H](C)NC(=O)[C@H](CC(C)C)NC(=O)[C@H](CCCNC(=N)N)NC(=O)[C@H](CCC(N)=O)NC(=O)[C@@H](NC(=O)[C@H](C)NC(=O)[C@@H]1CSSC[C@H](NC(=O)[C@H](CCCNC(=N)N)NC(=O)CC[C@H](NC(=O)CCCCCCCCCCCCCCCCCCC(=O)O)C(=O)O)C(=O)N[C@@H](CC(N)=O)C(=O)N[C@@H]([C@@H](C)O)C(=O)N[C@@H](C)C(=O)N[C@@H]([C@@H](C)O)C(=O)N1)[C@@H](C)O [Compound 152, [19CD]-isoGlu-RC()NTATC()ATQRLAEFLHRSSNNF-Gly(Me)-A-Ile(Me)-LSSTNVGSNTP-NHMe] ({C20 diacid-γGlu}-RCNTATCATQRLAEFLHRSSNNF[Sar]A[NMeI]LSSTNVGSNTP-NHMe; disulfide 2-7) | – | – | SS (SS indicates solubility ≥ 1mg/ml) | SS (SS indicates solubility ≥ 1mg/ml) | SS (SS indicates solubility ≥ 1mg/ml) | SS (SS indicates solubility ≥ 1mg/ml) | SS (SS indicates solubility ≥ 1mg/ml) | SS (SS indicates solubility ≥ 1mg/ml) | SS (SS indicates solubility ≥ 1mg/ml) | 0.95 nM | 5.2 nM
CC[C@H](C)[C@@H](C(=O)N[C@@H](CC(C)C)C(=O)N[C@@H](CO)C(=O)N[C@@H](CO)C(=O)N[C@H](C(=O)N[C@@H](CC(N)=O)C(=O)N[C@H](C(=O)NCC(=O)N[C@@H](CO)C(=O)N[C@@H](CC(N)=O)C(=O)N[C@H](C(=O)N1CCC[C@H]1C(=O)NC)[C@@H](C)O)C(C)C)[C@@H](C)O)N(C)C(=O)CN(C)C(=O)[C@H](Cc1ccccc1)NC(=O)[C@H](CC(N)=O)NC(=O)[C@H](CC(N)=O)NC(=O)[C@H](CO)NC(=O)[C@H](CO)NC(=O)[C@H](CCCNC(=N)N)NC(=O)[C@H](Cc1c[nH]cn1)NC(=O)[C@H](CC(C)C)NC(=O)[C@H](Cc1ccccc1)NC(=O)[C@H](CCC(=O)O)NC(=O)[C@H](C)NC(=O)[C@H](CC(C)C)NC(=O)[C@H](CCCNC(=N)N)NC(=O)[C@H](CCC(N)=O)NC(=O)[C@@H](NC(=O)[C@H](C)NC(=O)[C@@H]1CSSC[C@H](NC(=O)[C@H](CCCNC(=N)N)NC(=O)CC[C@H](NC(=O)CCCCCCCCCCCCCCCCCCC(=O)O)C(=O)O)C(=O)N[C@@H](CC(N)=O)C(=O)N[C@@H]([C@@H](C)O)C(=O)N[C@@H](C)C(=O)N[C@@H]([C@@H](C)O)C(=O)N1)[C@@H](C)O [Compound 153, [19CD]-isoGlu-RC()NTATC()ATQRLAEFLHRSSNNF-Gly(Me)-Ile(Me)-LSSTNVGSNTP-NHMe] ({C20 diacid-γGlu}-RCNTATCATQRLAEFLHRSSNNF[Sar][NMeI]LSSTNVGSNTP-NHMe; disulfide 2-7) | 0.73 nM | 6.1 nM | SS (SS indicates solubility ≥ 1mg/ml) | SS (SS indicates solubility ≥ 1mg/ml) | II (II indicates solubility ≤ 1 mg/ml) | SS (SS indicates solubility ≥ 1mg/ml) | SS (SS indicates solubility ≥ 1mg/ml) | SS (SS indicates solubility ≥ 1mg/ml) | SS (SS indicates solubility ≥ 1mg/ml) | – | –
CC[C@H](C)[C@@H](C(=O)N[C@@H](CC(C)C)C(=O)N[C@@H](CO)C(=O)N[C@@H](CO)C(=O)N[C@H](C(=O)N[C@@H](CC(N)=O)C(=O)N[C@H](C(=O)NCC(=O)N[C@@H](CO)C(=O)N[C@@H](CC(N)=O)C(=O)N[C@H](C(=O)N[C@@H](Cc1ccc(O)cc1)C(=O)NC)[C@@H](C)O)C(C)C)[C@@H](C)O)N(C)C(=O)[C@H](C)NC(=O)CN(C)C(=O)[C@H](Cc1ccccc1)NC(=O)[C@H](CC(N)=O)NC(=O)[C@H](CC(N)=O)NC(=O)[C@H](CO)NC(=O)[C@H](CO)NC(=O)[C@H](CCCNC(=N)N)NC(=O)[C@H](Cc1c[nH]cn1)NC(=O)[C@H](CC(C)C)NC(=O)[C@H](Cc1ccccc1)NC(=O)[C@H](CCC(=O)O)NC(=O)[C@H](C)NC(=O)[C@H](CC(C)C)NC(=O)[C@H](CCCNC(=N)N)NC(=O)[C@H](CCC(N)=O)NC(=O)[C@@H](NC(=O)[C@H](C)NC(=O)[C@@H]1CSSC[C@H](NC(=O)[C@H](CCCNC(=N)N)NC(=O)CC[C@H](NC(=O)CCCCCCCCCCCCCCCCCCC(=O)O)C(=O)O)C(=O)N[C@@H](CC(N)=O)C(=O)N[C@@H]([C@@H](C)O)C(=O)N[C@@H](C)C(=O)N[C@@H]([C@@H](C)O)C(=O)N1)[C@@H](C)O [Compound 154, [19CD]-isoGlu-RC()NTATC()ATQRLAEFLHRSSNNF-Gly(Me)-A-Ile(Me)-LSSTNVGSNTY-NHMe] ({C20 diacid-γGlu}-RCNTATCATQRLAEFLHRSSNNF[Sar]A[NMeI]LSSTNVGSNTY-NHMe; disulfide 2-7) | – | – | SS (SS indicates solubility ≥ 1mg/ml) | SS (SS indicates solubility ≥ 1mg/ml) | SS (SS indicates solubility ≥ 1mg/ml) | II (II indicates solubility ≤ 1 mg/ml) | II (II indicates solubility ≤ 1 mg/ml) | II (II indicates solubility ≤ 1 mg/ml) | II (II indicates solubility ≤ 1 mg/ml) | 0.55 nM | 6.3 nM
